# Test results from patent US20220395472A1 (Dermavant Sciences GmbH, priority 2021, published 2022).
# How the values were obtained:
# [1] = test system: adults with plaque psoriasis; assay: Long-term extension study (PSOARING 3): % BSA affected; assay type: in vivo, human; conditions: Week 40 OC; Vehicle (Pivotal)
# Description: The % BSA affected is an estimate of the percentage of total involved skin with psoriasis. For the purpose of clinical estimation, the total palmar surface of the subject's palm and digits was assumed to be approximately equivalent to 1% BSA. The % BSA affected by psoriasis was evaluated (from 0% to 100%). Details on calculation of approximate % BSA involvement in each subject (total and individual) can be found in Appendix 2 of the protocol. Percent BSA is a static assessment made without reference to previous scores.
# At Screening, Baseline, and for all efficacy assessments, lesions on the subject's scalp, palms, fingernails, toenails, and soles were not included in the calculation of % BSA affected as these areas were excluded from the efficacy analyses.
# [2] = test system: adults with plaque psoriasis; assay: Long-term extension study (PSOARING 3): PASI score, PASI75, PASI90; assay type: in vivo, human
# Excerpt: The PASI scoring system is a widely used, standard, clinical tool for assessing the severity of psoriasis that takes into account the overall severity of erythema (redness), induration (plaque thickness), scale, and the extent of % BSA affected with psoriasis. The 3 clinical signs are each graded on a 5 point scale (0 to 4) and the % BSA affected is scored on a 7 point scale (0 to 6) for each of the 4 specified body regions (head, upper extremities, trunk, and lower extremities). Individual scores are multiplied by a weighted factor for each body region; the sum of these scores gives the overall PASI score. Higher scores indicate more severe disease. PASI is a static assessment made without reference to previous scores. Details on PASI calculation can be found in Appendix 2 of the protocol.
# [3] = Week 16 LOCF, Tapinarof (Pivotal)
# [4] = Week 16 LOCF, Vehicle (Pivotal)
# [5] = Week 16 OC, Tapinarof (Pivotal)
# [6] = Week 40 LOCF, Tapinarof (Pivotal)
# [7] = Week 40 LOCF, Vehicle (Pivotal)
# [8] = Week 40 OC, Tapinarof (Pivotal)
structure (smiles),measurement,setting,value
CC(C)c1c(O)cc(/C=C/c2ccccc2)cc1O [Tapinarof Cream 1%],"% BSA affected, Percent CFBL, Median",[1],−86.06%
same,"PASI, Observed, Mean","[2]; Baseline, Overall",4.76
same,"PASI, Observed, Median","[2]; Baseline, Overall",3.40
same,"PASI, Observed, Mean","[2]; Baseline, Tapinarof (Pivotal)",3.28
same,"PASI, Observed, Median","[2]; Baseline, Tapinarof (Pivotal)",2.30
same,"PASI, CFBL, Mean","[2]; Week 16 LOCF, Overall",−1.80
same,"PASI, CFBL, Median","[2]; Week 16 LOCF, Overall",−0.90
same,"PASI, Observed, Mean","[2]; Week 16 LOCF, Overall",2.99
same,"PASI, Observed, Median","[2]; Week 16 LOCF, Overall",1.80
same,"PASI, Percent CFBL, Mean","[2]; Week 16 LOCF, Overall",−20.93%
same,"PASI, Percent CFBL, Median","[2]; Week 16 LOCF, Overall",−40.91%
same,"PASI, CFBL, Mean",[2]; [3],−0.54
same,"PASI, CFBL, Median",[2]; [3],−0.20
same,"PASI, Observed, Mean",[2]; [3],2.74
same,"PASI, Observed, Median",[2]; [3],1.80
same,"PASI, Percent CFBL, Mean",[2]; [3],−3.20%
same,"PASI, Percent CFBL, Median",[2]; [3],−25.00%
same,"PASI, CFBL, Mean",[2]; [4],−4.24
same,"PASI, CFBL, Median",[2]; [4],−3.80
same,"PASI, Observed, Mean",[2]; [4],3.47
same,"PASI, Observed, Median",[2]; [4],2.40
same,"PASI, Percent CFBL, Mean",[2]; [4],−51.02%
same,"PASI, Percent CFBL, Median",[2]; [4],−59.38%
same,"PASI, CFBL, Mean","[2]; Week 16 OC, Overall",−1.99
same,"PASI, CFBL, Median","[2]; Week 16 OC, Overall",−1.00
same,"PASI, Observed, Mean","[2]; Week 16 OC, Overall",2.57
same,"PASI, Observed, Median","[2]; Week 16 OC, Overall",1.80
same,"PASI, Percent CFBL, Mean","[2]; Week 16 OC, Overall",−25.35%
same,"PASI, Percent CFBL, Median","[2]; Week 16 OC, Overall",−44.72%
same,"PASI, CFBL, Mean",[2]; [5],−0.67
same,"PASI, CFBL, Median",[2]; [5],−0.40
same,"PASI, Observed, Mean",[2]; [5],2.38
same,"PASI, Observed, Median",[2]; [5],1.60
same,"PASI, Percent CFBL, Mean",[2]; [5],−7.79%
same,"PASI, Percent CFBL, Median",[2]; [5],−30.00%
same,"PASI, CFBL, Mean","[2]; Week 16 OC, Vehicle (Pivotal)",−4.59
same,"PASI, CFBL, Median","[2]; Week 16 OC, Vehicle (Pivotal)",−3.80
same,"PASI, Observed, Mean","[2]; Week 16 OC, Vehicle (Pivotal)",2.95
same,"PASI, Observed, Median","[2]; Week 16 OC, Vehicle (Pivotal)",2.10
same,"PASI, Percent CFBL, Mean","[2]; Week 16 OC, Vehicle (Pivotal)",−55.09%
same,"PASI, Percent CFBL, Median","[2]; Week 16 OC, Vehicle (Pivotal)",−64.02%
same,"PASI, CFBL, Median","[2]; Week 40 LOCF, Overall",−0.90
same,"PASI, Observed, Mean","[2]; Week 40 LOCF, Overall",2.97
same,"PASI, Observed, Median","[2]; Week 40 LOCF, Overall",1.80
same,"PASI, Percent CFBL, Mean","[2]; Week 40 LOCF, Overall",−10.45%
same,"PASI, Percent CFBL, Median","[2]; Week 40 LOCF, Overall",−44.44%
same,"PASI, CFBL, Mean",[2]; [6],−0.48
same,"PASI, CFBL, Median",[2]; [6],−0.20
same,"PASI, Observed, Mean",[2]; [6],2.80
same,"PASI, Observed, Median",[2]; [6],1.80
same,"PASI, Percent CFBL, Mean",[2]; [6],11.96%
same,"PASI, Percent CFBL, Median",[2]; [6],−27.27%
same,"PASI, CFBL, Mean",[2]; [7],−4.42
same,"PASI, CFBL, Median",[2]; [7],−3.90
same,"PASI, Observed, Mean",[2]; [7],3.28
same,"PASI, Observed, Median",[2]; [7],2.00
same,"PASI, Percent CFBL, Mean",[2]; [7],−48.42%
same,"PASI, Percent CFBL, Median",[2]; [7],−68.66%
same,"PASI, CFBL, Mean","[2]; Week 40 OC, Overall",−2.14
same,"PASI, CFBL, Median","[2]; Week 40 OC, Overall",−1.20
same,"PASI, Observed, Mean","[2]; Week 40 OC, Overall",2.36
same,"PASI, Observed, Median","[2]; Week 40 OC, Overall",1.60
same,"PASI, Percent CFBL, Mean","[2]; Week 40 OC, Overall",−16.18%
same,"PASI, Percent CFBL, Median","[2]; Week 40 OC, Overall",−56.70%
same,"PASI, CFBL, Mean",[2]; [8],−0.51
same,"PASI, CFBL, Median",[2]; [8],−0.30
same,"PASI, Observed, Mean",[2]; [8],2.38
same,"PASI, Observed, Median",[2]; [8],1.60
same,"PASI, Percent CFBL, Mean",[2]; [8],8.49%
same,"PASI, Percent CFBL, Median",[2]; [8],−35.24%
same,"PASI, CFBL, Mean","[2]; Week 40 OC, Vehicle (Pivotal)",−5.53
same,"PASI, CFBL, Median","[2]; Week 40 OC, Vehicle (Pivotal)",−4.80
same,"PASI, Observed, Mean","[2]; Week 40 OC, Vehicle (Pivotal)",2.31
same,"PASI, Observed, Median","[2]; Week 40 OC, Vehicle (Pivotal)",1.40
same,"PASI, Percent CFBL, Mean","[2]; Week 40 OC, Vehicle (Pivotal)",−60.12%
same,"PASI, Percent CFBL, Median","[2]; Week 40 OC, Vehicle (Pivotal)",−76.39%
